In patent US7429482B2, “Screening tools for discovery of novel anabolic agents” (United States of America as represented by the Department …, priority 2005, dated 2008):

How the values were obtained:
[1] = Testosterone levels after replacement in rats; format: in vivo; settings: rat, testosterone 0.7 mg/day continuous infusion
Method: (§1) Male Wistar rats weighing 200-250 gm (Taconic Farms, Germantown, N.Y.) were provided food and water ad libitum and were housed in a temperature and humidity controlled environment providing a 12:12 hour day-night cycle. For surgical procedures, animals were anesthetized with ketamine/xylazine. The left sciatic nerve was exposed by blunt dissection, and a 1 to 2 mm piece of this nerve was excised just below the level of the femoral head. A sham surgery was performed on the right hind limb in which the sciatic nerve was exposed but was not transected. Twenty eight days later, animals were anesthetized, and Alzet pumps were implanted subcutaneously on the back. […] Testosterone levels after replacement were approximately 15 nM, a high-normal range for rats of this age. Animals were sacrificed 3, 7 or 28 days after implantation of the miniosmotic pumps by inhalation of carbon dioxide. Gastrocnemius muscles were excised and weighed, then flash frozen on dry ice and stored at −80° C.

[2] = target: GR; settings: Danhaive and Rousseau 1986; cited from earlier work
[3] = tested on: MAFbx; test: Acute denervation: MAFbx mRNA in EDL and soleus (qPCR); format: in vivo, rat; settings: nandrolone 1.5 mg/kg/wk 14 days
Method: (§2) Male Wistar rats weighing 250 gm (Taconic Farms, Germantown, N.Y.) were provided food and water ad libitum and were housed in a temperature and humidity controlled environment providing a 12:12 hour day-night cycle. For surgical procedures, animals were anesthetized with ketamine/xylazine. The left sciatic nerve was exposed by blunt dissection, and a 1 to 2 mm piece of this nerve was excised just below the level of the femoral head. A sham surgery was performed on the right hind limb in which the sciatic nerve was exposed but was not transected. Model 2002 Alzet pumps were implanted subcutaneously on the back. […] A pellet containing 15 mg of testosterone (Innovative Research of America, Sarasota, Fla.) administered as a continuous infusion (5 mg/wk), or a pellet containing placebo, was inserted into a subcutaneous pouch. […] Because testosterone is known to have anabolic actions (Ferrando et al., Am J Physiol Endocrinol Metab 282: E601-E607, 2002; Mauras et al., J Clin Endocrinol Metab 83: 1886-1892, 1998; Urban et al., Am J Physiol 269: E820-E826, 1995), reductions in levels of this hormone could affect muscle mass and confound interpretation of the results. Animals were euthanized 14 days later by inhalation of carbon dioxide. […]
(§3) Total RNA was extracted from skeletal muscle (20 mg) by homogenization in guanidine thiocyanate using a Polytron followed by extraction using phenol-chloroform (Chomczynski and Sacchi, Anal Biochem 162: 156-159, 1987). […] Total RNA was then eluted and quantified by absorbance at 260 nm. […] Levels of gene expression in the denervated muscle were expressed as fold induction relative to muscle from the sham-denervated leg of animals administered vehicle. […] Fold-induction was determined using the 2^−ΔΔCt method, using expression of 18S RNA as the normalization control. […]

[4] = tested on: MuRF1; test: Acute denervation: MuRF1 mRNA in EDL and soleus (qPCR); format: in vivo, rat; settings: nandrolone 1.5 mg/kg/wk 14 days
Method: as §2, §3

[5] = tested on: IGF-1 receptor (IGF-1R); test: Acute denervation: IGF-1 receptor mRNA in EDL and soleus (qPCR); format: in vivo, rat
Method: Male Wistar rats weighing 250 gm (Taconic Farms, Germantown, N.Y.) were provided food and water ad libitum and were housed in a temperature and humidity controlled environment providing a 12:12 hour day-night cycle. For surgical procedures, animals were anesthetized with ketamine/xylazine. The left sciatic nerve was exposed by blunt dissection, and a 1 to 2 mm piece of this nerve was excised just below the level of the femoral head. A sham surgery was performed on the right hind limb in which the sciatic nerve was exposed but was not transected. Model 2002 Alzet pumps were implanted subcutaneously on the back. […] A pellet containing 15 mg of testosterone (Innovative Research of America, Sarasota, Fla.) administered as a continuous infusion (5 mg/wk), or a pellet containing placebo, was inserted into a subcutaneous pouch. […]
as §3

[6] = tested on: myostatin; test: Chronic denervation: myostatin mRNA in gastrocnemius (qPCR); format: in vivo, rat
Method: as §1, with “Animals were sacrificed 3, 7 or 28 days after implantation of the miniosmotic pumps by inhalation of carbon dioxide. Gastrocnemius muscles were excised and weighed, then flash frozen on dry ice and stored at −80° C.” left out
as §3, with “extraction of total RNA with” for “extraction using”, “phenol-chloroform as described by” for “phenol-chloroform”, “was” for “was then”

[7] = tested on: IGFBP-2; test: Chronic denervation: IGFBP-2 mRNA in gastrocnemius (qPCR); format: in vivo, rat
Method: as §1, with “Animals were sacrificed 3, 7 or 28 days after implantation of the miniosmotic pumps by inhalation of carbon dioxide. Gastrocnemius muscles were excised and weighed, then flash frozen on dry ice and stored at −80° C.” left out
as §3, with “extraction of total RNA with” for “extraction using”, “phenol-chloroform as described by” for “phenol-chloroform”, “was” for “was then”

[8] = tested on: IGFBP-3; test: Chronic denervation: IGFBP-3 mRNA in gastrocnemius (qPCR); format: in vivo, rat
Method: as §1, with “Animals were sacrificed 3, 7 or 28 days after implantation of the miniosmotic pumps by inhalation of carbon dioxide. Gastrocnemius muscles were excised and weighed, then flash frozen on dry ice and stored at −80° C.” left out
as §3, with “extraction of total RNA with” for “extraction using”, “phenol-chloroform as described by” for “phenol-chloroform”, “was” for “was then”

[9] = tested on: myogenin; test: Chronic denervation: myogenin mRNA in gastrocnemius (qPCR); format: in vivo, rat
Method: as §1
Total RNA was extracted from skeletal muscle (20 mg) by homogenization in guanidine thiocyanate using a Polytron followed by extraction of total RNA with phenol-chloroform as described by (Chomczynski and Sacchi, Anal Biochem 162: 156-159, 1987). Total RNA was further enriched using RNAeasy minicolumns (Qiagen, Valencia, Calif.). This procedure included digestion of contaminating DNA on the column with RNAse-free DNAse (Qiagen). Total RNA was eluted and quantified by absorbance at 260 nm. One μg of total RNA was used to prepare a cDNA library by reverse transcription (High Capacity cDNA Archive Kit, Applied Biosystems). Libraries were diluted 25-fold with water. Real time PCR was performed Taqman 2×PCR buffer (Applied Biosystems) using an Applied Biosystems 7500 thermocycler. Levels of gene expression in the denervated muscle were expressed as fold induction relative to muscle from the sham-denervated leg of animals administered vehicle. […] Fold-induction was determined using the 2^−ΔΔCt method, using expression of 18S RNA as the normalization control. Primers and probes used for 18S RNA, MuRF1 and myostatin were obtained through the assays by Design service of Applied Biosystems and had the sequences are shown in Table 3; probes were 5′ labeled with FAM and 3′ modified with a non-fluorescent quencher. All other primer-probe combinations used were those contained in ABI Assay on Demand kits.

Structure (SMILES)	testosterone levels after replacement [1]	Kd [2]	MAFbx expression ([3]; denervated EDL)	MAFbx expression ([3]; denervated soleus)	MAFbx expression ([3]; sham-denervated EDL or soleus)	MuRF1 expression ([4]; denervated EDL)	MuRF1 expression ([4]; denervated soleus)	MuRF1 expression ([4]; sham-denervated soleus or EDL)	IGF-1R expression ([5]; denervated soleus or EDL)	IGF-1R expression ([5]; sham-denervated soleus and EDL, changes not significant)	myostatin expression ([6]; denervated muscle, 7 and 28 days administration)	myostatin expression ([6]; sham-denervated muscle, not significant)	IGFBP-2 expression ([7]; denervated muscle, any time tested)	IGFBP-2 expression ([7]; sham-denervated muscle)	IGF-BP-3 expression ([8]; denervated muscle, 56-days)	IGFBP-3 expression ([8]; sham-denervated muscle)	myogenin expression ([9]; denervated muscle, 3 or 7-days administration)	fall in myogenin expression ([9]; denervated muscle, 28-days infusion)	elevation of myogenin expression ([9]; muscle not stated (contrasted with denervated muscle), day 28 of the infusion)	myogenin expression ([9]; muscle not stated, first 7-days after starting administration)
C[C@]12CC[C@H]3[C@@H](CCC4=CC(=O)CC[C@@]43C)[C@@H]1CC[C@@H]2O [testosterone]	approximately 15 nM	~200 nM																		
C[C@]12CC[C@H]3[C@@H](CCC4=CC(=O)CC[C@@H]43)[C@@H]1CC[C@@H]2O [nandrolone]			reductions were not statistically significant	significantly reduced	did not significantly alter	significantly reduced	significantly decreased	did not significantly affect	No appreciable effects	tended to increase	modest, though significant reduction	tended to be decreased	did not significantly alter	did not appreciably alter	significantly reduced	did not appreciably alter	No effects	32%	approximately 2 fold	did not alter
